Key:
[1] = First-in-human SAD and MAD study, safety and tolerability; assay type: in vivo; details: for Cmax: human, plasma, oral, read-out: individual Cmax levels up to which well tolerated
Protocol: A first-in-human study was conducted to evaluate the safety, tolerability and pharmacokinetics (PK) of single and multiple ascending doses (SAD and MAD) of oral Compound A.
In the SAD Phase, 32 healthy volunteers were randomized (3:1) to Compound A (5, 15, 20, 25 or 30 mg) or placebo. The study featured an adaptive design. A crossover food effect cohort (N=10) was also completed with single doses of 20 mg. A sub-set of 8 male subjects were also assessed with Transcranial Magnetic Stimulation (TMS) for effects on cortical excitability (see Examples 4 and 5).
Repeat doses of Compound A (15 mg QD) were evaluated in a fasted and fed state over 7 and 10 days, respectively. Repeat doses of Compound A (25 mg QD) were also evaluated in a fed state over 10 days.
Compound A was formulated as an immediate release capsule. Serial plasma PK samples were collected for all cohorts. Safety evaluations throughout the study included adverse event (AE) monitoring, clinical laboratory tests, vital signs, ECGs, physical examinations and Columbia-Suicide Severity Rating Scale.

[2] = Open-label randomized two-period fed/fasted crossover study, plasma PK; details: human, in vivo
Source text: The study consisted of two Treatment Periods, Period 1 and Period 2. Each Treatment Period consisted of 7 days, with the dosing of Compound A occurring on Day 1. The two treatment periods were separated by a washout period of 10 days. The subjects were randomized into two groups. During Treatment Period 1, one group received an oral dose of Compound A while fasted and the other group received an oral dose of Compound A when fed. The group which fasted in Treatment Period 1 was fed in Treatment Period 2 and vice versa.
On Day 1 of each Treatment Period, each subject orally received 20 mg of Compound A (4 capsules with 5 mg of Compound A in each capsule).
During the fed period, following an overnight fast of at least 10 hours, a standard high fat, high calorie breakfast was given as per FDA guidance; the breakfast was given 30 minutes prior to the scheduled dosing time, and was completed 10 minutes before dosing. A representative breakfast included 2 slices of buttered toast, 2 fried eggs, 2 strips of bacon, 4 oz. of hash brown potatoes, and 8 oz. of whole milk.
During the fasted period, dosing occurred after an overnight fast of at least 10 hours. No food was allowed for 4 hours post-dose in either the fed or fasted period. Water was allowed as desired except for one hour before and after dosing.
For all subjects, blood samples for the determination of Compound A plasma concentration were collected at dosing (0.0 hours (time zero)) and at 0.5, 1.0, 1.5, 2.0, 3.0, 4.0, 6.0, 8.0, 12.0, 24.0, 32.0, 48.0 and 144.0 hours post-dose.

cortical excitability [3] = assay: TMS crossover study, TMS-evoked EEG potentials (TEPs); assay type: in vivo, human; details: for N45 vs pre-dose: 4 h (p=0.03)
Protocol: All 20 subjects underwent TMS-EMG and TMS-EEG sessions prior to dosing on Days 1 and 7 and at 2 and 4 h after dosing. […] For the 6 h timepoint, RMT was performed for 16 subjects, and AMT, EEG resting state, and TMS-EEG was performed for 8 subjects.
Compound A-induced modulation of PD markers was evaluated as an effect of time (comparisons of 2, 4, and 6 h post-dose vs. pre-dose) and of concentration (using the post-dose measure taken during highest drug exposure vs. baseline).
TMS-evoked EEG potentials (TEPs) were calculated by averaging artefact-free EEG trials in the different experimental conditions (Table 17).
The following TEP components (P=positive, N=negative) in accordance with the literature were studied, value in parenthesis is the time of interest (TOI): P25 (15-35 ms), N45 (35-70 ms), P70 (70-80 ms), N100 (80-145 ms), and P180 (145-230 ms). TOIs were chosen on the basis of the grand-averaged TEPs and kept identical during the analysis of pre-dose and post-dose measurements and across conditions. To analyze drug-induced modulation of TEPs, we selected a region of interest (ROI) that was composed of 27 channels over and around the stimulation site (left M1) and the corresponding contralateral site (‘FC1’, ‘FC3’, ‘FC5’, ‘C1’, ‘C3’, ‘C5’, ‘CP1’, ‘CP3’, ‘CP5’, ‘P1’, ‘P3’, ‘P5’, ‘Cz’, ‘CPz’, ‘Pz’, ‘FC2’, ‘FC4’, ‘FC6’, ‘C2’, ‘C4’, ‘C6’, ‘CP2’, ‘CP4’, ‘CP6’, ‘P2’, ‘P4’, ‘P6’).
To analyze significance of TEP amplitude modulations induced by Compound A, multiple dependent sample t-test comparisons (post-dose vs. pre-dose) were applied for each TOI in all the electrodes within the indicated ROI. To correct for multiple comparisons (i.e., electrodes, timepoints), we conducted a non-parametric cluster-based permutation analysis as implemented in FieldTrip.

[4] = Transcranial magnetic stimulation pilot study (RMT/AMT, TEPs, rEEG); details: male, human, in vivo
Protocol: (§1) In a pilot study TMS was used to non-invasively determine whether Compound A (10, 15 and 20 mg) impacts cortical excitability. The TMS pilot study was designed to inform sample size calculation for a larger randomized, double-blind and placebo-controlled TMS cross-over study (N=20) with Compound A.
(§2) Eight healthy, right-handed male subjects (aged 21-35 years, 62.4-95.4 kg) from a First-in-Human Phase 1 study were enrolled in this open-label TMS pilot study. RMT, TEPs and EEGs were recorded prior to Compound A, 2 and 4 h post dose. Spectral analysis was performed on resting EEGs. Single-subject level analyses were performed via multiple independent sample t-tests to determine effects of Compound A on TEP amplitudes. Multiple comparisons were accounted for using clusterbased permutation analysis.

cortical excitability [5] = assay: as above
Protocol: as §1, §2

Cc1cc(N2CCc3cc(F)ccc3C2)cc(C)c1NC(=O)CC(C)(C)C [Compound A, N-[4-(6-fluoro-3,4-dihydro-1H-isoquinolin-2-yl)-2,6-dimethylphenyl]-3,3-dimethylbutanamide]
Cmax ([1]; multiple doses): ≤ 107 ng/mL | Cmax ([1]; single doses): ≤ 104 ng/mL | SAEs, deaths, ECG or laboratory findings ([1]; single and multiple doses): no SAEs, deaths, or clinically significant ECG or laboratory findings | severity of the majority of AEs ([1]; single and multiple doses, e.g. dizziness, sedation): mild or moderate | safety and tolerability ([1]; single doses of up to 30 mg and multiple doses of 25 mg QD): safe and well-tolerated | concentration at 3 h ([2]; both sexes, fed, 20 mg oral, 3.0 h, individual subjects, read-out: Compound A Concentration): 104 ng/mL | Cmax ([2]; both sexes, fed, 20 mg oral, individual subjects): 104 ng/mL | bioavailability and exposure, fed compared to fasted conditions ([2]; po, 20 mg): significantly enhanced | Modulation of TEPs, N45 (cortical excitability [3]; 2 h after dosing vs pre-dose): Not significant | Modulation of TEPs, P180 (cortical excitability [3]; 2 h after dosing vs pre-dose): Not significant | N15-P25 complex vs pre-dose (cortical excitability [3]; all available subjects, 2 h (p=0.006) and 4 h (p=0.01)): decreased | P180 vs pre-dose (cortical excitability [3]; all available subjects, 4 h (p=0.02)): significantly suppressed | N45 vs pre-dose (cortical excitability [3]; all available subjects): significantly suppressed | TEP amplitude P180 (cortical excitability [3]; concentration analysis N=16, highest plasma concentration, printed 2.2 vs 3.0 μV, p<0.01): 2.2 μV | peak-to-peak amplitude of early complex N15-P25 (15 to 35 ms) (cortical excitability [3]; concentration analysis N=16, highest plasma concentration, printed 4.5 vs 6.0 μV, p<0.05): 4.5 μV | TEP amplitude N45 (cortical excitability [3]; concentration analysis N=16, highest plasma concentration, printed −2.3 vs −3.0 μV, p<0.01): −2.3 μV | N15-P25 complex vs pre-dose (cortical excitability [3]; subjects with drug exposure, 2 h (p=0.008) and 4 h (p=0.02)): decreased | P180 vs pre-dose (cortical excitability [3]; subjects with drug exposure, 4 h (p=0.004)): significantly suppressed | N45 vs pre-dose (cortical excitability [3]; subjects with drug exposure): significantly suppressed | N100 vs pre-dose (cortical excitability [3]; subjects with drug exposure, 4 h (p=0.04)): significantly suppressed | concentration at 4 h ([4]; 10 mg): 23.1 ng/mL | concentration at 4 h ([4]; 15 mg): 36.3 ng/mL | concentration at 4 h ([4]; 20 mg): 50 ± 10 ng/mL | TEP modulation (cortical excitability [5]; 10 mg (N=2) and 15 mg (N=3)): did not show significant and robust TEP modulation | AMT (cortical excitability [5]; 10 mg, N=2): did not change AMT | SICI assessed with TMS/EMG (cortical excitability [5]; 10, 15, 20 mg): but not SICI | motor thresholds assessed with TMS/EMG (cortical excitability [5]; 10, 15, 20 mg, 2 and 4 hours post-drug): increased | RMT increase from baseline (cortical excitability [5]; 4 h post 20 mg): 4.3±0.6% | theta power in rEEG (cortical excitability [5]; 4 h post 20 mg): increased | suppression of TEP amplitude, peak at 180 ms (P180) (cortical excitability [5]; 4 h post 20 mg, p<0.01, N=3): 1.92±0.03 μV
